# PubChem BioAssay (NCI)
#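 Exposure lasted 48 hours, with cells grown in 96-well plates and compounds tested at five concentrations. GI50 marks 50% less growth. TGI denotes the concentration required for complete inhibition of growth.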
# Experiments:
# Test in all cases: NCI-60 cell line screen, 48 h
# SW-620 colon = system: SW-620 colon
# HL-60(TB) leukemia = system: HL-60(TB) leukemia
# K-562 leukemia = system: K-562 leukemia
# EKVX NSCLC = system: EKVX NSCLC
# A549 NSCLC = system: A549 NSCLC
# T-47D breast = system: T-47D breast
# LOX IMVI melanoma = system: LOX IMVI melanoma
# NCI-H23 lung = system: NCI-H23 lung
# HT29 colon = system: HT29 colon
# NCI-H460 lung = system: NCI-H460 lung
# TK-10 renal = system: TK-10 renal
# SNB-75 CNS = system: SNB-75 CNS
# SK-MEL-5 melanoma = system: SK-MEL-5 melanoma
# DU-145 prostate = system: DU-145 prostate
# SN12C renal = system: SN12C renal
# SF-539 CNS = system: SF-539 CNS
# MCF7 breast = system: MCF7 breast
# M14 melanoma = system: M14 melanoma
# MOLT-4 leukemia = system: MOLT-4 leukemia
# SK-OV-3 ovarian = system: SK-OV-3 ovarian
# SK-MEL-2 melanoma = system: SK-MEL-2 melanoma
# UACC-257 melanoma = system: UACC-257 melanoma
# MDA-MB-435 = system: MDA-MB-435
# KM12 colon = system: KM12 colon
# MDA-MB-231 breast = system: MDA-MB-231 breast
# UO-31 renal = system: UO-31 renal
# OVCAR-4 ovarian = system: OVCAR-4 ovarian
# ACHN renal = system: ACHN renal
# IGROV1 ovarian = system: IGROV1 ovarian
# NCI-H522 lung = system: NCI-H522 lung
# SK-MEL-28 melanoma = system: SK-MEL-28 melanoma
# HCT-15 colon = system: HCT-15 colon
# HOP-92 NSCLC = system: HOP-92 NSCLC
# PC-3 prostate = system: PC-3 prostate
# RXF 393 renal = system: RXF 393 renal
# OVCAR-3 ovarian = system: OVCAR-3 ovarian
# HOP-62 NSCLC = system: HOP-62 NSCLC
# SNB-19 CNS = system: SNB-19 CNS
# HCT-116 colon = system: HCT-116 colon
# CAKI-1 renal = system: CAKI-1 renal
# RPMI-8226 leukemia = system: RPMI-8226 leukemia
# SF-295 CNS = system: SF-295 CNS
# SR leukemia = system: SR leukemia
# U251 CNS = system: U251 CNS
# OVCAR-8 ovarian = system: OVCAR-8 ovarian
# 786-0 renal = system: 786-0 renal
# SF-268 CNS = system: SF-268 CNS
# NCI/ADR-RES ovarian = system: NCI/ADR-RES ovarian
# COLO 205 colon = system: COLO 205 colon
# UACC-62 melanoma = system: UACC-62 melanoma
# BT-549 breast = system: BT-549 breast
smiles,measurement,setting,value
CN(C)CCNC(=O)c1ccc2oc3cc4ccccc4c(=O)n3c2c1,GI50,SW-620 colon,28.6 µM
same,TGI,SW-620 colon,> 100 µM
same,GI50,HL-60(TB) leukemia,30.4 µM
same,TGI,HL-60(TB) leukemia,> 100 µM
same,GI50,K-562 leukemia,64.1 µM
same,TGI,K-562 leukemia,> 100 µM
same,GI50,EKVX NSCLC,27.5 µM
same,TGI,EKVX NSCLC,> 100 µM
same,GI50,A549 NSCLC,26.2 µM
same,TGI,A549 NSCLC,97 µM
same,GI50,T-47D breast,34.6 µM
same,TGI,T-47D breast,> 100 µM
same,GI50,LOX IMVI melanoma,42.2 µM
same,TGI,LOX IMVI melanoma,> 100 µM
same,GI50,NCI-H23 lung,17.4 µM
same,TGI,NCI-H23 lung,57.8 µM
same,GI50,HT29 colon,28 µM
same,TGI,HT29 colon,> 100 µM
same,GI50,NCI-H460 lung,42.2 µM
same,TGI,NCI-H460 lung,> 100 µM
same,GI50,TK-10 renal,21.6 µM
same,TGI,TK-10 renal,72.3 µM
same,GI50,SNB-75 CNS,22.9 µM
same,TGI,SNB-75 CNS,61.2 µM
same,GI50,SK-MEL-5 melanoma,22.6 µM
same,TGI,SK-MEL-5 melanoma,43.6 µM
same,GI50,DU-145 prostate,33.4 µM
same,TGI,DU-145 prostate,> 100 µM
same,GI50,SN12C renal,46.6 µM
same,TGI,SN12C renal,> 100 µM
same,GI50,SF-539 CNS,22 µM
same,TGI,SF-539 CNS,47.3 µM
same,GI50,MCF7 breast,64.1 µM
same,TGI,MCF7 breast,> 100 µM
same,GI50,M14 melanoma,52 µM
same,TGI,M14 melanoma,> 100 µM
same,GI50,MOLT-4 leukemia,64.2 µM
same,TGI,MOLT-4 leukemia,> 100 µM
same,GI50,SK-OV-3 ovarian,63.8 µM
same,TGI,SK-OV-3 ovarian,> 100 µM
same,GI50,SK-MEL-2 melanoma,21.4 µM
same,TGI,SK-MEL-2 melanoma,63.5 µM
same,GI50,UACC-257 melanoma,23.9 µM
same,TGI,UACC-257 melanoma,58 µM
same,GI50,MDA-MB-435,42.1 µM
same,TGI,MDA-MB-435,> 100 µM
same,GI50,KM12 colon,10.5 µM
same,TGI,KM12 colon,77.8 µM
same,GI50,MDA-MB-231 breast,31.8 µM
same,TGI,MDA-MB-231 breast,> 100 µM
same,GI50,UO-31 renal,19.6 µM
same,TGI,UO-31 renal,47.5 µM
same,GI50,OVCAR-4 ovarian,7.6 µM
same,TGI,OVCAR-4 ovarian,> 100 µM
same,GI50,ACHN renal,15.1 µM
same,TGI,ACHN renal,37.6 µM
same,GI50,IGROV1 ovarian,23.1 µM
same,TGI,IGROV1 ovarian,> 100 µM
same,GI50,NCI-H522 lung,18.1 µM
same,TGI,NCI-H522 lung,39.8 µM
same,GI50,SK-MEL-28 melanoma,26.6 µM
same,TGI,SK-MEL-28 melanoma,> 100 µM
same,GI50,HCT-15 colon,28.2 µM
same,TGI,HCT-15 colon,> 100 µM
same,GI50,HOP-92 NSCLC,> 100 µM
same,TGI,HOP-92 NSCLC,> 100 µM
same,GI50,PC-3 prostate,61.6 µM
same,TGI,PC-3 prostate,> 100 µM
same,GI50,RXF 393 renal,23.8 µM
same,TGI,RXF 393 renal,70.4 µM
same,GI50,OVCAR-3 ovarian,15.4 µM
same,TGI,OVCAR-3 ovarian,52.6 µM
same,GI50,HOP-62 NSCLC,> 100 µM
same,TGI,HOP-62 NSCLC,> 100 µM
same,GI50,SNB-19 CNS,40.9 µM
same,TGI,SNB-19 CNS,> 100 µM
same,GI50,HCT-116 colon,41.6 µM
same,TGI,HCT-116 colon,> 100 µM
same,GI50,CAKI-1 renal,17.1 µM
same,TGI,CAKI-1 renal,55.2 µM
same,GI50,RPMI-8226 leukemia,51.2 µM
same,TGI,RPMI-8226 leukemia,> 100 µM
same,GI50,SF-295 CNS,28 µM
same,TGI,SF-295 CNS,> 100 µM
same,GI50,SR leukemia,32.9 µM
same,TGI,SR leukemia,> 100 µM
same,GI50,U251 CNS,34.3 µM
same,TGI,U251 CNS,> 100 µM
same,GI50,OVCAR-8 ovarian,23.1 µM
same,TGI,OVCAR-8 ovarian,76.2 µM
same,GI50,786-0 renal,71.6 µM
same,TGI,786-0 renal,> 100 µM
same,GI50,SF-268 CNS,32.6 µM
same,TGI,SF-268 CNS,93.2 µM
same,GI50,NCI/ADR-RES ovarian,37.4 µM
same,TGI,NCI/ADR-RES ovarian,> 100 µM
same,GI50,COLO 205 colon,32.1 µM
same,TGI,COLO 205 colon,> 100 µM
same,GI50,UACC-62 melanoma,48.4 µM
same,TGI,UACC-62 melanoma,> 100 µM
same,GI50,BT-549 breast,27.4 µM
same,TGI,BT-549 breast,66.2 µM
